# Data from patent publication US11058114B2, “Use of n-arylamidine-substituted trifluoroethyl sulphoxide derivatives for controlling pests by watering, droplet application, dip application, soil injection or by treating seed” (BAYER CROPSCIENCE AKTIENGESELLSCHAFT, priority 2014, dated 2021).
# Key:
# [1] = system: greenhouse red spider mite (Tetranychus urticae), OP-resistant; assay: Tetranychus urticae spray test, OP-resistant (TETRUR SPRAY); type: in vivo; conditions: bean plants (Phaseolus vulgaris), 100% = all spider mites killed; for pest or weed control at 0.8 ppm / pest or weed control at 4 ppm / pest or weed control at 0.16 ppm: Tetranychus urticae, 336 h, 14 d, read-out: % effect after 14 d
# Description: Tetranychus urticae—Spray Test; OP-Resistant (TETRUR)
# (§1) Solvent: 7 parts by weight of dimethylformamide
# Emulsifier: alkylaryl polyglycol ether
# To produce a suitable active compound preparation, 1 part by weight of active compound was dissolved using the stated parts by weight of solvent and made up with water containing an emulsifier concentration of 1000 ppm until the desired concentration was attained. To produce further test concentrations, the preparation was diluted with emulsifier-containing water. Ammonium salts and penetrants (rapeseed oil methyl ester) were each added in a concentration of 1000 ppm to the solution of the preparations.
# Bean plants (Phaseolus vulgaris) which were heavily infested by all stages of the greenhouse red spider mite (Tetranychus urticae) were sprayed with an active compound preparation of the desired concentration.
# (§2) After the desired period of time, the efficacy in % was determined. 100% means that all the spider mites have been killed; 0% means that no spider mites have been killed.
# [2] = system: greenhouse red spider mite (Tetranychus urticae), OP-resistant; assay: Tetranychus urticae drench test, OP-resistant (TETRUR DRENCH); type: in vivo; conditions: bean plants (Phaseolus vulgaris) in soil pots, 100% = all spider mites killed; for pest or weed control at 0.8 ppm / pest or weed control at 4 ppm / pest or weed control at 0.16 ppm: Tetranychus urticae, in Phaseolus vulgaris, soil, 336 h, 14 d, read-out: % effect after 14 d
# Description: Tetranychus urticae—Drench Test, OP-Resistant (TETRUR)
# as §1
# Emulsifier: 2 parts by weight of alkylaryl polyglycol ether
# To produce a suitable active compound preparation, 1 part by weight of active compound was mixed with the specified amounts of solvent and emulsifier, and the concentrate was diluted with water to the desired concentration, with the volume of soil which was drenched being taken into account. It was ensured that a concentration of 40 ppm of emulsifier in the soil was not exceeded. To produce further test concentrations, water was used for dilution.
# Bean plants (Phaseolus vulgaris), in soil pots, which were heavily infested by all stages of the greenhouse red spider mite (Tetranychus urticae) were watered with an active compound preparation of the desired concentration.
# as §2
SMILES,pest or weed control at 0.8 ppm [1] [%],pest or weed control at 4 ppm [1] [%],pest or weed control at 0.8 ppm [2] [%],pest or weed control at 4 ppm [2] [%],% effect after 14 d ([1]; 0.16 ppm) [%],% effect after 14 d ([2]; 0.16 ppm) [%],pest or weed control at 0.16 ppm ([1]; 0.16 ppm) [%],pest or weed control at 0.16 ppm ([2]; 0.16 ppm) [%]
Cc1cc(F)c(/N=C(\N(C)C)C(F)(F)F)cc1[S+]([O-])CC(F)(F)F (centres unmarked) [Ib-01],0,98,100,100,,,,
Cc1cc(F)c(/N=C(\N)C(F)(F)F)cc1[S+]([O-])CC(F)(F)F (centres unmarked) [Ib-11],50,95,100,100,,,,
N/C(=N/c1cc([S+]([O-])CC(F)(F)F)c(Cl)cc1Cl)C(F)(F)F (centres unmarked) [Ib-14],,,,,0,80,,
N/C(=N/c1ccc(C(F)(F)F)c([S+]([O-])CC(F)(F)F)c1)C(F)(F)F (centres unmarked) [Ib-16],40,,100,,,,0,99
N/C(=N/c1cc([S+]([O-])CC(F)(F)F)c(Cl)cc1Cl)C(F)(F)F (centres unmarked) [Ib-17],98,,100,,,,0,98
N/C(=N/c1cc([S+]([O-])CC(F)(F)F)c(Br)cc1Br)C(F)(F)F (centres unmarked) [Ib-18],50,,99,,,,0,99
Cc1cc(F)c(/N=C(\N)C2(F)CC2)cc1[S+]([O-])CC(F)(F)F (centres unmarked) [Ib-19],30,,98,,,,0,98
CN/C(=N/c1cc([S+]([O-])CC(F)(F)F)c(Cl)cc1Cl)C(F)(F)F (centres unmarked) [Ib-21],90,,95,,,,0,80
Cc1cc(F)c(/N=C(\N)C2(Cl)CC2)cc1[S+]([O-])CC(F)(F)F (centres unmarked) [Ib-22],0,30,90,90,,,,
CN/C(=N/c1cc([S+]([O-])CC(F)(F)F)c(Br)cc1Br)C(F)(F)F (centres unmarked) [Ib-24],30,,100,,,,,
CN(C)/C(=N/c1cc([S+]([O-])CC(F)(F)F)c(Br)cc1Br)C(F)(F)F (centres unmarked) [Ib-25],50,,99,,,,,
CN(C)/C(=N/c1cc([S+]([O-])CC(F)(F)F)c(Cl)cc1Cl)C(F)(F)F (centres unmarked) [Ib-26],0,,95,,,,,
Cc1cc(F)c(/N=C2\CCCN2CC(F)F)cc1[S+]([O-])CC(F)(F)F (centres unmarked) [Ib-33],0,,95,,,,0,60
N/C(=N/c1cc([S+]([O-])CC(F)(F)F)c(Cl)cc1Br)C(F)(F)F (centres unmarked) [Ib-57],,,,,,,0,90
Cc1cc(F)c(/N=C(\N)c2cnccn2)cc1[S+]([O-])CC(F)(F)F (centres unmarked) [Ib-62],0,0,90,90,,,,
N/C(=N/c1cc([S+]([O-])CC(F)(F)F)c(Br)cc1Cl)C(F)(F)F (centres unmarked) [Ib-68],80,,100,,,,0,98
Cc1cc(F)c(/N=C2\CCCN2CC(F)(F)F)cc1[S+]([O-])CC(F)(F)F (centres unmarked) [Ib-115],0,0,90,90,,,,
Cc1cc(F)c(/N=C2\SCC(=O)N2CC(F)(F)F)cc1[S@+]([O-])CC(F)(F)F [Ib-168],30,,95,,,,0,50
